From paper PMC6804243, “Small-Molecule Inhibition of UBE2T/FANCL-Mediated Ubiquitylation in the Fanconi Anemia Pathway” (ACS Chemical Biology, 2019) come the findings set out here.

Assay [1] deals with pS345 CHK1, γH2AX, pS824 KAP1, PARP1. Nature of the assay: Immunoblot of DNA damage biomarkers (pS345 CHK1, γH2AX, pS824 KAP1, PARP1 cleavage) in U2OS cells. Type of assay: cell-based. Particulars: 8 h, CU1 200 μM or CU2 500 μM; for levels of pS824 KAP1 / levels of pS345 CHK1: HU 2.5 mM; for levels of pS345 CHK1: relative to DMSO control; for levels of γH2AX (immunoblot): in combination with HU 2.5 mM, relative to HU plus DMSO. As for the experimental part: As DNA damage induced by HU is cell-cycle-dependent, it was necessary to establish whether CU1 and CU2 might simply prevent cells from entering the S-phase, which would also manifest itself as a reduction in mUb-FANCD2. This was determined by analysis of several biomarkers linked to DNA damage in cycling cells. Activated CHK1 (pS345 CHK1) phosphorylates CDC25A, inducing the transient arrest of cells in the S-phase, or in G2 before the onset of mitosis.[18] […] These observations were also confirmed by cell cycle analysis.
Following the generation of DNA DSBs, ATM, ATR, and/or DNA-PKcs mediated phosphorylation of histone H2AX generates the phosphorylated species, γH2AX.[19] […] Following HU treatment, DSBs are formed if stalled replication forks are not stabilized and subsequently collapse. Therefore, we concluded that CU1 and CU2 appeared to act by impairing the ability of cells to stabilize and repair stalled replication forks. This is consistent with CU1 and CU2 inhibiting the formation of mUb-FANCD2, which would otherwise play a role in stabilizing stalled replication forks, thus preventing their collapse and the formation of DSBs.
In response to DSB formation, the transcriptional repressor and RING finger protein, KAP1, is released from chromatin, following its ATM-mediated phosphorylation on Ser824.[20] […] An increase in the number of DSBs could also have been caused by apoptosis. In cells undergoing apoptosis, PARP1 is cleaved from a full-length 116 kDa protein into 89 and 24 kDa polypeptides by caspase-3.[21]
Reaction mixtures were incubated for the indicated time at 37 °C and stopped by the addition of 2X reducing SDS -PAGE sample buffer, separated on NuPAGE Novex 4 –12% Bis/Tris gradient gels (Invitrogen) and visualized by Western blotting using the indicated antibodies (Table S3).
Cell culture. U2OS cells were cultured at 37 °C in a humidified atmosphere and 5% (v/v) CO2 in Dulbecco's Modified Eagle Medium (DMEM; Sigma-Aldrich) supplemented with 10% (v/v) fetal bovine serum (FBS), 100 units/ml of penicillin, […] of streptomycin and 292 μg/mL L-glutamine.
Cell extract preparation and immunoblotting. U2OS cells were lysed in buffer containing 50 mM Tris-HCl pH 7.5, 2% SDS, 10 mM NEM, cocktail protease inhibitor (Roche) and phosphatase inhibitor cocktail followed by sonication 100 µg of extracts were boiled for 5 mins at 95 °C in 5X loading buffer and loaded onto NuPAGE Novex 4–12% Bis/Tris gradient gels
(Invitrogen), or NuPAGE Novex 3-8% Tris/Acetate gradient gels (Invitrogen) for detection of mUb-FANCD2. After separation the gels were transferred to PVDF and the membranes were blocked with Tris-buffered saline containing 0.1% (v/v) Tween-20 (TBST) and 5% (v/v) bovine serum albumin (BSA) and incubated with the indicated primary and secondary antibodies. mUb-FANCD2 intensity was quantified using Image Studio (LI-COR).
IncuCyte cell proliferation assays. 2000 U2OS cells were seeded per well in 96-well plates and treated with compounds 24 hours afterwards. After 1 hour of compound treatment, 15 µM carboplatin (Sigma-Aldrich) was added and the cells were cultured in an incubator with an IncuCyte microscopy -platform (Essen BioScience). Phase -contrast images were acquired every 6 hours for 8 days until DMSO-carboplatin treated cells reached >80% confluence. Cell proliferation was monitored as the occupied area (% confluence) of cell images over time and calculated as percentage confluence over time. Cell confluency percentages were calculated using the integrated Cell Player software and results were analysed with Prism 6 (GraphPad Software).
On the technique in general: A western blot detects proteins with antibodies after separation by electrophoresis.

Assay [2] concerns mUb-H2A and total protein ubiquitylation. Nature of the assay: Immunoblot of widespread cellular ubiquitylation (mUb-H2A, FK2 antibody). It counts as cell-based. Particulars: U2OS; CU1 200 μM or CU2 500 μM; with or without HU 2.5 mM, 8 h. As for the experimental part: Figure 3 Cell-based assays with CU1 and CU2: (a) Western blot showing that the formation of mUb-FANCD2(*), in response to HU treatment (2.5 mM, 8 h), is impaired in U2OS cells in the presence of CU1 (200 μM) or CU2 (500 μM). Ratio = mUb-FANCD2/FANCD2 (normalized to DMSO control). mUb-FANCD2 was resolved on a separate gel. PARP1 was used as a loading control for each gel, as well as to assess apoptosis. (b) Quantification of the reduction in mUb-FANCD2, in response to HU treatment (2.5 mM, 8 h) in the presence of CU1 (200 μM) or CU2 (500 μM). Mean calculated from three independent experiments. […] TEXT PRINTED IN THE PICTURE: (d) DMSO: S-phase 42.7; G1 29.2; G2-M 27.8 | (d) HU: S-phase 0.24; G1 72.4; G2-M 22.9 | (d) CU1: S-phase 43.4; G1 26.8; G2-M 29.1 | (d) CU2: S-phase 39.7; G1 31.9; G2-M 28.2 DOUBTS OF THE COPYIST ABOUT THIS PICTURE: Panel d print is small, so these digits are best readings: DMSO G2-M 27.8 (8 or 6); CU1 G1 26.8 (6 or 8); CU2 S-phase 39.7 (9 or 8); CU2 G2-M 28.2 (8 or 6) / Panels a and c: the lane ratios printed under the western blots (a: 1.0, 0.64, 0.40; c: 1.0/0.65, 1.0/0.63, 1.0/0.53) were left out because they belong to blots and the picture prints no measure for them […]
To investigate if the compounds were affecting more widespread ubiquitylation events in the cell, the monoubiquitylation status of histone H2A was assessed (mUb-H2A; Figure 3a). […]

The structures appear in SMILES notation.

Regarding `NCCN1C(=O)CC[C@H]2CN(Cc3cccc(-c4ccco4)c3)CC[C@H]21` [CU1], in assay [1], the “levels of pS824 KAP1” value is on record as “increased levels of pS824 KAP1”, the “levels of pS345 CHK1” value is given as “Comparable levels of pS345 CHK1” and the “levels of γH2AX (immunoblot)” value was “somewhat increased the levels of γH2AX”. Further, the “total protein ubiquitylation (FK2 antibody)” value in assay [2] is recorded as “do not affect total protein ubiquitylation”.

For the compound `CCN1CCN(c2cc(C)nc3nc(CN4CCCCC4C)nn23)CC1` (centres unmarked) [CU2], in assay [1], the “levels of pS824 KAP1” value is listed as “increased levels of pS824 KAP1”, the “levels of pS345 CHK1” value is reported as “Comparable levels of pS345 CHK1” and the “levels of γH2AX (immunoblot)” value is “somewhat increased the levels of γH2AX”. For the same compound, the “total protein ubiquitylation (FK2 antibody)” value in assay [2] is reported as “do not affect total protein ubiquitylation”.
